# According to US8129398B2 (priority 2008, dated 2012):
# Target: T1, HIV-integrase (Human immunodeficiency virus type 1 group M subtype B, UniProt P12497)
# T1 construct: Recombinant integrase (0.26 ng) was incubated with the beads
# Assay: HIV-Integrase Inhibition Activity (SPA bead integration assay with P33 labeled target DNA)
# Format: biochemical
# Details: recombinant integrase, class symbols; read-out: in vitro activity
# Protocol: HIV-Integrase Inhibition Activity. To evaluate in-vitro activity against HIV-integrase, 5 pmole of biotin labeled substrate DNA was bound to 100 μg of Streptavidin coated PVT SPA beads (Amersham Pharmacia Biotech). Recombinant integrase (0.26 ng) was incubated with the beads for 90 min at 37° C. Unbound enzyme was removed by washing the complex followed by addition of inhibitors and 0.1 fmol of P33 labeled target DNA. The reaction was stopped by adding EDTA to a final concentration of 10 mM. Samples were counted in TopCountNXT (Packard) and the CPM was used as a measure of integration. The reaction condition was as described in A. Engelman and R. Craigie, J. Virol. 69, 5908-5911 (1995). The sequences of substrate and target DNA were described in Nucleic Acid Research 22, 1121-1122 (1994). Activity equal to A refers to a compound having IC50=<10 nM while B and C denote compounds having […] and IC50>100 nM respectively.
row,SMILES,IC50 [nM]
1,"CN(C)C(=O)C(=O)NC12CCC(Cn3c1nc(C(=O)NCc1ccc(F)cc1)c(O)c3=O)C2 (single isomer, unassigned) [Example 411, Ethanediamide, N′-[2-[[[(4-fluorophenyl)methyl]amino]carbonyl]-6,7,8,9-tetrahydro-3-hydroxy-4-oxo-7,11-methanopyrimido[1,2-a]azepin-10(4H)-yl]-N,N-dimethyl-]",< 10
2,"CN(C)C(=O)C(=O)NC12CCC(CCn3c1nc(C(=O)NCc1ccc(F)cc1)c(O)c3=O)C2 (single isomer, unassigned) [Example 413, Ethanediamide, N′-[2-[[[(4-fluorophenyl)methyl]amino]carbonyl]-7,8,9,10-tetrahydro-3-hydroxy-4-oxo-8,11-methano-4H-pyrimido[1,2-a]azocin-11(6H)-yl]-N,N-dimethyl-]",< 10
3,"CC(=O)N1CCCC1C(=O)NC12CCC(CC1)Cn1c2nc(C(=O)NCc2ccc(F)cc2)c(O)c1=O (stereo in doubt) [Example 253, 7,10-Ethanopyrimido[1,2-a]azepine-2-carboxamide, 10-[[[(2R)-1-acetyl-2-pyrrolidinyl]carbonyl]amino]-N-[(4-fluorophenyl)methyl]-4,6,7,8,9,10-hexahydro-3-hydroxy-4-oxo-]",10 to 100
4,"CS(=O)(=O)N1CCCC1C(=O)NC12CCC(CC1)Cn1c2nc(C(=O)NCc2ccc(F)cc2)c(O)c1=O (stereo in doubt) [Example 254, 7,10-Ethanopyrimido[1,2-a]azepine-2-carboxamide, N-[(4-fluorophenyl)methyl]-4,6,7,8,9,10-hexahydro-3-hydroxy-10-[[[(2R)-1-(methylsulfonyl)-2-pyrrolidinyl]carbonyl]amino]-4-oxo-]",< 10
5,"CC(=O)N1CCC1C(=O)NC12CCC(CC1)Cn1c2nc(C(=O)NCc2ccc(F)c(C)c2)c(O)c1=O (stereo in doubt) [Example 275, 7,10-Ethanopyrimido[1,2-a]azepine-2-carboxamide, 10-[[[(2S)-1-acetyl-2-azetidinyl]carbonyl]amino]-N-[(4-fluoro-3-methylphenyl)methyl]-4,6,7,8,9,10-hexahydro-3-hydroxy-4-oxo-]",< 10
6,"O=C(NCc1ccc(F)cc1)c1nc2n(c(=O)c1O)CC1CNCC2C1 (centres unmarked) [Example 7, 7,11-Methano-4H-pyrimido[1,2-a][1,5]diazocine-2-carboxamide, N-[(4-fluorophenyl)methyl]-6,7,8,9,10,11-hexahydro-3-hydroxy-4-oxo-]",10 to 100
7,CN(C(=O)OCc1ccccc1)C1c2nc(C(=O)NCc3ccc(F)cc3)c(O)c(=O)n2CC2CCC1C2 (centres unmarked) [Example 8],< 10
8,"CNC1c2nc(C(=O)NCc3ccc(F)cc3)c(O)c(=O)n2CC2CCC1C2 (centres unmarked) [Example 9, 7,10-Methano-4H-pyrimido[1,2-a]azocine-2-carboxamide, N-[(4-fluorophenyl)methyl]-6,7,8,9,10,11-hexahydro-3-hydroxy-11-(methylamino)-4-oxo-]",> 100
9,"NC12CCC(CC1)n1c2nc(C(=O)NCc2ccc(F)cc2)c(O)c1=O [Example 11, 6,9-Ethano-4H-pyrido[1,2-a]pyrimidine-2-carboxamide, 9-amino-N-[(4-fluorophenyl)methyl]-6,7,8,9-tetrahydro-3-hydroxy-4-oxo-]",10 to 100
10,"CC(=O)NC12CCC(CC1)n1c2nc(C(=O)NCc2ccc(F)cc2)c(O)c1=O [Example 12, 6,9-Ethano-4H-pyrido[1,2-a]pyrimidine-2-carboxamide, 9-(acetylamino)-N-[(4-fluorophenyl)methyl]-6,7,8,9-tetrahydro-3-hydroxy-4-oxo-]",< 10
11,"CS(=O)(=O)NC12CCC(CC1)n1c2nc(C(=O)NCc2ccc(F)cc2)c(O)c1=O [Example 13, 6,9-ethano-4H-pyrido[1,2-a]pyrimidine-2-carboxamide, N-[(4-fluorophenyl)methyl]-6,7,8,9-tetrahydro-3-hydroxy-9-[(methylsulfonyl)amino]-4-oxo-]",< 10
12,"CN(C)CC(=O)NC12CCC(CC1)n1c2nc(C(=O)NCc2ccc(F)cc2)c(O)c1=O [Example 14, 6,9-Ethano-4H-pyrido[1,2-a]pyrimidine-2-carboxamide, 9-[[(dimethylamino)acetyl]amino]-N-[(4-fluorophenyl)methyl]-6,7,8,9-tetrahydro-3-hydroxy-4-oxo-]",10 to 100
13,"Cn1nc(C(C)(C)C)cc1C(=O)NC12CCC(CC1)n1c2nc(C(=O)NCc2ccc(F)cc2)c(O)c1=O [Example 15, 6,9-Ethano-4H-pyrido[1,2-a]pyrimidine-2-carboxamide, 9-[[[3-(1,1-dimethylethyl)-1-methyl-1H-pyrazol-5-yl]carbonyl]amino]-N-[(4-fluorophenyl)methyl]-6,7,8,9-tetrahydro-3-hydroxy-4-oxo-]",< 10
14,"CN(C)C(=O)C(=O)NC12CCC(CC1)n1c2nc(C(=O)NCc2ccc(F)cc2)c(O)c1=O [Example 16, Ethanediamide, N′-[2-[[[(4-fluorophenyl)methyl]amino]carbonyl]-7,8-dihydro-3-hydroxy-4-oxo-6,9-ethano-4H-pyrido[1,2-a]pyrimidin-9(6H)-yl]-N,N-dimethyl-]",< 10
15,"Cc1nnc(C(=O)NC23CCC(CC2)n2c3nc(C(=O)NCc3ccc(F)cc3)c(O)c2=O)o1 [Example 17, 6,9-Ethano-4H-pyrido[1,2-a]pyrimidine-2-carboxamide, N-[(4-fluorophenyl)methyl]-6,7,8,9-tetrahydro-3-hydroxy-9-[[(5-methyl-1,3,4-oxadiazol-2-yl)carbonyl]amino]-4-oxo-]",< 10
16,"O=C(NC12CCC(CC1)Cn1c2nc(C(=O)NCc2ccc(F)cc2)c(O)c1=O)OCc1ccccc1 [Example 18, Benzyl (2-((4-fluorobenzyl)carbamoyl)-3-hydroxy-4-oxo-6,7,8,9-tetrahydro-7,10-ethanopyrimido[1,2-a]azepin-10(4H)-yl)carbamate]",< 10
17,"CC(=O)NC12CCC(CC1)Cn1c2nc(C(=O)NCc2ccc(F)cc2)c(O)c1=O [Example 20, 10-(Acetylamino)-N-(4-fluorobenzyl)-3-hydroxy-4-oxo-4,6,7,8,9,10-hexahydro-7,10-ethanopyrimido[1,2-a]azepine-2-carboxamide]",< 10
18,"CS(=O)(=O)NC12CCC(CC1)Cn1c2nc(C(=O)NCc2ccc(F)cc2)c(O)c1=O [Example 21, N-(4-Fluorobenzyl)-3-hydroxy-10-((methylsulfonyl)amino)-4-oxo-4,6,7,8,9,10-hexahydro-7,10-ethanopyrimido[1,2-a]azepine-2-carboxamide]",< 10
19,"O=C(NCc1ccc(F)cc1)c1nc2n(c(=O)c1O)CC1CCC2(NC(=O)N2CCOCC2)CC1 [Example 22, N-(4-Fluorobenzyl)-3-hydroxy-10-((4-morpholinylcarbonyl)amino)-4-oxo-4,6,7,8,9,10-hexahydro-7,10-ethanopyrimido[1,2-a]azepine-2-carboxamide]",10 to 100
20,"CS(=O)(=O)N1CCN(C(=O)NC23CCC(CC2)Cn2c3nc(C(=O)NCc3ccc(F)cc3)c(O)c2=O)C1=O [Example 23, N-(4-Fluorobenzyl)-3-hydroxy-10-(((3-(methylsulfonyl)-2-oxo-1-imidazolidinyl)carbonyl)amino)-4-oxo-4,6,7,8,9,10-hexahydro-7,10-ethanopyrimido[1,2-a]azepine-2-carboxamide]",< 10
21,"Cc1cc(C(=O)NC23CCC(CC2)Cn2c3nc(C(=O)NCc3ccc(F)cc3)c(O)c2=O)nn1C [Example 24, 10-(((1,5-Dimethyl-1H-pyrazol-3-yl)carbonyl)amino)-N-(4-fluorobenzyl)-3-hydroxy-4-oxo-4,6,7,8,9,10-hexahydro-7,10-ethanopyrimido[1,2-a]azepine-2-carboxamide]",< 10
22,"COC(=O)NC12CCC(CC1)Cn1c2nc(C(=O)NCc2ccc(F)cc2)c(O)c1=O [Example 25, Methyl (2-((4-fluorobenzyl)carbamoyl)-3-hydroxy-4-oxo-6,7,8,9-tetrahydro-7,10-ethanopyrimido[1,2-a]azepin-10(4H)-yl)carbamate]",< 10
23,"O=C(NC12CCC(CC1)Cn1c2nc(C(=O)NCc2ccc(F)cc2)c(O)c1=O)c1ccccn1 [Example 26, N-(4-Fluorobenzyl)-3-hydroxy-4-oxo-10-((2-pyridinylcarbonyl)amino)-4,6,7,8,9,10-hexahydro-7,10-ethanopyrimido[1,2-a]azepine-2-carboxamide]",< 10
24,"CN(C)C(=O)NC12CCC(CC1)Cn1c2nc(C(=O)NCc2ccc(F)cc2)c(O)c1=O [Example 27, 10-((Dimethylcarbamoyl)amino)-N-(4-fluorobenzyl)-3-hydroxy-4-oxo-4,6,7,8,9,10-hexahydro-7,10-ethanopyrimido[1,2-a]azepine-2-carboxamide]",10 to 100
25,"Cc1cc(C(=O)NC23CCC(CC2)Cn2c3nc(C(=O)NCc3ccc(F)cc3)c(O)c2=O)no1 [Example 28, N-(4-Fluorobenzyl)-3-hydroxy-10-(((5-methyl-3-isoxazolyl)carbonyl)amino)-4-oxo-4,6,7,8,9,10-hexahydro-7,10-ethanopyrimido[1,2-a]azepine-2-carboxamide]",< 10
26,"CN(C)CC(=O)NC12CCC(CC1)Cn1c2nc(C(=O)NCc2ccc(F)cc2)c(O)c1=O [Example 29, 10-((N,N-Dimethylglycyl)amino)-N-(4-fluorobenzyl)-3-hydroxy-4-oxo-4,6,7,8,9,10-hexahydro-7,10-ethanopyrimido[1,2-a]azepine-2-carboxamide]",10 to 100
